Our source for the IC50 values is patent US11065257B2, “Substituted pyrazoloazepin-4-ones and their use as phosphodiesterase inhibitors” (LEO Pharma A/S, priority 2016, dated 2021).

A value given as a limit tells only on which side of the number the result lay.

For this experiment, the target named is T1, human PDE4D catalytic domain (Homo sapiens, UniProt Q08499).
T1 construct: UniProt no; Q08499 [S380-L740]
T1 sequence (Q08499 380-740): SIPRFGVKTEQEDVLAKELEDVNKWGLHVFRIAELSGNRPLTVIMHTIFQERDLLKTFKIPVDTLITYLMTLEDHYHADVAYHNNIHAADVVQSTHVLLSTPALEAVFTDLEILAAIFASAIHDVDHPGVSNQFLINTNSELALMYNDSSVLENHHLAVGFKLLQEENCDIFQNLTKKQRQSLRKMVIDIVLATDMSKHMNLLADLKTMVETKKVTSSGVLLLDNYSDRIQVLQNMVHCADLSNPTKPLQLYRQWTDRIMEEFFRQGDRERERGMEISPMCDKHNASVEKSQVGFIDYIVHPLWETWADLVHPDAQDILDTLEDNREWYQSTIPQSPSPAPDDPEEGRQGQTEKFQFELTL
In words: PDE4 Assay. As to conditions: human PDE4D catalytic domain (S380-L740), TR-FRET with FAM-cAMP; expressed as a range of IC50; read-out: PDE4 Potency Range. The class given is biochemical. The procedure: The human PDE4D catalytic domain (UniProt no. Q08499 [S380-L740]) was incubated with a mixture of non-labelled cAMP (cyclic adenosine monophosphate) and fluorescein amidite (FAM) conjugated cAMP and titrated test or reference compound. Following brief incubation the enzymatic reaction was stopped by addition of binding buffer containing nanoparticles with immobilized trivalent metal ions capable of binding 1) AMP phospho groups and 2) terbium (Tb) donor fluorophores. Subsequent excitation of the Tb donor triggers time-resolved FRET to adjacent FAM acceptor molecules resulting in light emission. In the presence of a PDE4 inhibitor, AMP generation was reduced resulting in a lower fluorescence signal. The cAMP phosphodiester is not bound by the detection system.
The results were calculated as the molar concentrations resulting in 50% inhibition of the substrate cleavage compared to controls samples, and are expressed as a range of IC50 (nM).
With `CCc1nn(CCCOC(=O)c2ncccn2)c2c1C(=O)NCC1(CCOCC1)C2` [Example 31, 3-(3-ethyl-4-oxo-spiro[6,8-dihydro-5H-pyrazolo[4,3-c]azepine-7,4′-tetrahydropyran]-1-yl)propyl pyrimidine-2-carboxylate], the IC50 is above 500 nM.

For the compound `CCc1nn(CCCOC(=O)c2ccn(C)n2)c2c1C(=O)NCC1(CCOCC1)C2` [Example 32, 3-(3-ethyl-4-oxo-spiro[6,8-dihydro-5H-pyrazolo[4,3-c]azepine-7,4′-tetrahydropyran]-1-yl)propyl 1-methylpyrazole-3-carboxylate], the IC50 was above 500 nM.

In the case of `CCc1nn(CCCOC(=O)c2cc(C)n[nH]2)c2c1C(=O)NCC1(CCOCC1)C2` [Example 33, 3-(3-ethyl-4-oxo-spiro[6,8-dihydro-5H-pyrazolo[4,3-c]azepine-7,4′-tetrahydropyran]-1-yl)propyl 5-methyl-1H-pyrazole-3-carboxylate], the IC50 fell in the range of 100 to 500 nM.

On to `CCc1nn(CCCOC(=O)c2ccnn2C)c2c1C(=O)NCC1(CCOCC1)C2` [Example 35, 3-(3-ethyl-4-oxo-spiro[6,8-dihydro-5H-pyrazolo[4,3-c]azepine-7,4′-tetrahydropyran]-1-yl)propyl 2-methylpyrazole-3-carboxylate], for which the IC50 is 100 to 500 nM.

Take `CCc1nn(CCCOC(=O)c2cnc(C)[nH]2)c2c1C(=O)NCC1(CCOCC1)C2` [Example 36, 3-(3-ethyl-4-oxo-spiro[6,8-dihydro-5H-pyrazolo[4,3-c]azepine-7,4′-tetrahydropyran]-1-yl)propyl 2-methyl-1H-imidazole-4-carboxylate]: the IC50 fell in the range of 100 to 500 nM.

With `CCc1nn(CCCOC(=O)c2cnn(C)c2)c2c1C(=O)NCC1(CCOCC1)C2` [Example 38, 3-(3-ethyl-4-oxo-spiro[6,8-dihydro-5H-pyrazolo[4,3-c]azepine-7,4′-tetrahydropyran]-1-yl)propyl 1-methylpyrazole-4-carboxylate], the IC50 is 100 to 500 nM.

As for `CCc1nn(CCCOC(=O)c2cn(C)cn2)c2c1C(=O)NCC1(CCOCC1)C2` [Example 39, 3-(3-ethyl-4-oxo-spiro[6,8-dihydro-5H-pyrazolo[4,3-c]azepine-7,4′-tetrahydropyran]-1-yl)propyl 1-methylimidazole-4-carboxylate], the IC50 is above 500 nM.

Regarding `CCc1nn(CCCOC(=O)c2nccn2C)c2c1C(=O)NCC1(CCOCC1)C2` [Example 40, 3-(3-ethyl-4-oxo-spiro[6,8-dihydro-5H-pyrazolo[4,3-c]azepine-7,4′-tetrahydropyran]-1-yl)propyl 1-methylimidazole-2-carboxylate], the IC50 lay in the range of 100 to 500 nM.

For the compound `CCc1nn(CCCOC(=O)c2cncn2C)c2c1C(=O)NCC1(CCOCC1)C2` [Example 41, 3-(3-ethyl-4-oxo-spiro[6,8-dihydro-5H-pyrazolo[4,3-c]azepine-7,4′-tetrahydropyran]-1-yl)propyl 3-methylimidazole-4-carboxylate], the IC50 lay in the range of 100 to 500 nM.

As for `CCc1nn(CCCOC(=O)c2oncc2C)c2c1C(=O)NCC1(CCOCC1)C2` [Example 42, 3-(3-ethyl-4-oxo-spiro[6,8-dihydro-5H-pyrazolo[4,3-c]azepine-7,4′-tetrahydropyran]-1-yl)propyl 4-methylisoxazole-5-carboxylate], the IC50 was in the range of 100 to 500 nM.

As for `CCc1nn(CCCOC(=O)c2cc(C)no2)c2c1C(=O)NCC1(CCOCC1)C2` [Example 43, 3-(3-ethyl-4-oxo-spiro[6,8-dihydro-5H-pyrazolo[4,3-c]azepine-7,4′-tetrahydropyran]-1-yl)propyl 3-methylisoxazole-5-carboxylate], the IC50 is 100 to 500 nM.

Consider `CCc1nn(CCCOC(=O)c2cc(C)on2)c2c1C(=O)NCC1(CCOCC1)C2` [Example 44, 3-(3-ethyl-4-oxo-spiro[6,8-dihydro-5H-pyrazolo[4,3-c]azepine-7,4′-tetrahydropyran]-1-yl)propyl 5-methylisoxazole-3-carboxylate], for which the IC50 lay in the range of 100 to 500 nM.

In the case of `CCc1nn(CCCOC(=O)c2conc2C)c2c1C(=O)NCC1(CCOCC1)C2` [Example 45, 3-(3-ethyl-4-oxo-spiro[6,8-dihydro-5H-pyrazolo[4,3-c]azepine-7,4′-tetrahydropyran]-1-yl)propyl 3-methylisoxazole-4-carboxylate], the IC50 lay within 100 to 500 nM.

For the compound `CCc1nn(CCCOC(=O)c2coc(C)n2)c2c1C(=O)NCC1(CCOCC1)C2` [Example 46, 3-(3-ethyl-4-oxo-spiro[6,8-dihydro-5H-pyrazolo[4,3-c]azepine-7,4′-tetrahydropyran]-1-yl)propyl 2-methyloxazole-4-carboxylate], the IC50 is above 500 nM.

Regarding `CCc1nn(CCCOC(=O)c2ocnc2C)c2c1C(=O)NCC1(CCOCC1)C2` [Example 47, 3-(3-ethyl-4-oxo-spiro[6,8-dihydro-5H-pyrazolo[4,3-c]azepine-7,4′-tetrahydropyran]-1-yl)propyl 4-methyloxazole-5-carboxylate], the IC50 lay in the range of 100 to 500 nM.

Take `CCc1nn(CCCOC(=O)c2cnc(C)o2)c2c1C(=O)NCC1(CCOCC1)C2` [Example 48, 3-(3-ethyl-4-oxo-spiro[6,8-dihydro-5H-pyrazolo[4,3-c]azepine-7,4′-tetrahydropyran]-1-yl)propyl 2-methyloxazole-5-carboxylate]: the IC50 was 100 to 500 nM.

Consider `CCc1nn(CCCOC(=O)c2cnnn2C)c2c1C(=O)NCC1(CCOCC1)C2` [Example 49, 3-(3-ethyl-4-oxo-spiro[6,8-dihydro-5H-pyrazolo[4,3-c]azepine-7,4′-tetrahydropyran]-1-yl)propyl 3-methyltriazole-4-carboxylate], for which the IC50 fell in the range of 100 to 500 nM.

With `CCc1nn(CCCOC(=O)c2nnc(C)[nH]2)c2c1C(=O)NCC1(CCOCC1)C2` [Example 50, 3-(3-ethyl-4-oxo-spiro[6,8-dihydro-5H-pyrazolo[4,3-c]azepine-7,4′-tetrahydropyran]-1-yl)propyl 5-methyl-4H-1,2,4-triazole-3-carboxylate], the IC50 is above 500 nM.

For `CCc1nn(CCCOC(=O)c2nonc2C)c2c1C(=O)NCC1(CCOCC1)C2` [Example 51, 3-(3-ethyl-4-oxo-spiro[6,8-dihydro-5H-pyrazolo[4,3-c]azepine-7,4′-tetrahydropyran]-1-yl)propyl 4-methyl-1,2,5-oxadiazole-3-carboxylate], the IC50 fell in the range of 100 to 500 nM.

With `CCc1nn(CCCOC(=O)c2cc(O)no2)c2c1C(=O)NCC1(CCOCC1)C2` [Example 52, 3-(3-ethyl-4-oxo-spiro[6,8-dihydro-5H-pyrazolo[4,3-c]azepine-7,4′-tetrahydropyran]-1-yl)propyl 3-hydroxyisoxazole-5-carboxylate], the IC50 was 100 to 500 nM.

With `CCc1nn(CCCOC(=O)c2ccsn2)c2c1C(=O)NCC1(CCOCC1)C2` [Example 53, 3-(3-ethyl-4-oxo-spiro[6,8-dihydro-5H-pyrazolo[4,3-c]azepine-7,4′-tetrahydropyran]-1-yl)propyl isothiazole-3-carboxylate], the IC50 fell in the range of 100 to 500 nM.

With `CCc1nn(CCCOC(=O)c2ccns2)c2c1C(=O)NCC1(CCOCC1)C2` [Example 54, 3-(3-ethyl-4-oxo-spiro[6,8-dihydro-5H-pyrazolo[4,3-c]azepine-7,4′-tetrahydropyran]-1-yl)propyl isothiazole-5-carboxylate], the IC50 lay in the range of 100 to 500 nM.

Consider `CCc1nn(CCCOC(=O)c2cnsc2)c2c1C(=O)NCC1(CCOCC1)C2` [Example 55, 3-(3-ethyl-4-oxo-spiro[6,8-dihydro-5H-pyrazolo[4,3-c]azepine-7,4′-tetrahydropyran]-1-yl)propyl isothiazole-4-carboxylate], for which the IC50 is 100 to 500 nM.

Take `CCc1nn(CCCOC(=O)c2cncs2)c2c1C(=O)NCC1(CCOCC1)C2` [Example 56, 3-(3-ethyl-4-oxo-spiro[6,8-dihydro-5H-pyrazolo[4,3-c]azepine-7,4′-tetrahydropyran]-1-yl)propyl thiazole-5-carboxylate]: the IC50 was 100 to 500 nM.

For `CCc1nn(CCCOC(=O)c2csnn2)c2c1C(=O)NCC1(CCOCC1)C2` [Example 57, 3-(3-ethyl-4-oxo-spiro[6,8-dihydro-5H-pyrazolo[4,3-c]azepine-7,4′-tetrahydropyran]-1-yl)propyl thiadiazole-4-carboxylate], the IC50 lay within 100 to 500 nM.

As for `CCc1nn(CCCOC(=O)C2CCCOC2)c2c1C(=O)NCC1(CCOCC1)C2` (centres unmarked) [Example 58, 3-(3-ethyl-4-oxo-spiro[6,8-dihydro-5H-pyrazolo[4,3-c]azepine-7,4′-tetrahydropyran]-1-yl)propyl tetrahydropyran-3-carboxylate], the IC50 was above 500 nM.

In the case of `CCc1nn(CCCOC(=O)C2CCOCC2)c2c1C(=O)NCC1(CCOCC1)C2` [Example 59, 3-(3-ethyl-4-oxo-spiro[6,8-dihydro-5H-pyrazolo[4,3-c]azepine-7,4′-tetrahydropyran]-1-yl)propyl tetrahydropyran-4-carboxylate], the IC50 was above 500 nM.

Turning to `CCc1nn(CCCOC(=O)C2CCSC2)c2c1C(=O)NCC1(CCOCC1)C2` (centres unmarked) [Example 60, 3-(3-ethyl-4-oxo-spiro[6,8-dihydro-5H-pyrazolo[4,3-c]azepine-7,4′-tetrahydropyran]-1-yl)propyl tetrahydrothiophene-3-carboxylate], the IC50 was 100 to 500 nM.

Take `CCc1nn(CCCOC(=O)c2ccc(C)cn2)c2c1C(=O)NCC1(CCOCC1)C2` [Example 61, 3-(3-ethyl-4-oxo-spiro[6,8-dihydro-5H-pyrazolo[4,3-c]azepine-7,4′-tetrahydropyran]-1-yl)propyl 5-methylpyridine-2-carboxylate]: the IC50 was in the range of 100 to 500 nM.
